According to US20240374590A1, “COMPOSITIONS AND METHODS FOR TREATING CANCER” (A2A PHARMACEUTICALS, INC., priority 2021, published 2024):

Tests used:
[1] = system: JIMT-1 human breast cancer cell line; assay: Cell viability assay (SRB) in JIMT-1; format: cell-based; details: 72 hours after treatment, read-out: JIMT1 IC50
Procedure: (§1) Human colon carcinoma cell line HCT-116 was a kind gift from Igor Ronninson from University of South Caroli, Columbia, USA. Human breast cancer cell line, JIMT-1 was kindly provided by Ali Osmay Güre from Bilkent University, Ankara, Turkey. Cells were cultured in Dulbecco's modified Eagle's medium (Lonza, NJ, USA), supplemented with 10% fetal bovine serum (FBS, Lonza), 1% non-essential amino acid (NEAA), 2 mM L-glutamine (Sigma Aldrich, MO, USA) and 50 U/ml penicillin/streptomycin (P/S). HCT-116 cells were cultured in McCoy's 5A (modified) (Gibco) medium supplemented with FBS, NEAA, L-glutamine and P/S. All cell lines were tested regularly using MycoAlert Mycoplasma Detection Kit (Lonza). The cumulative length of the cells between thawing and use in the experiments was less than 20 passages.
(§2) Newly synthesized molecules were dissolved in 100% DMSO to yield a stock concentration of 10 mM. For cell viability assay, JIMT-1 (3×10^3 cells/well) and HCT-116 (4×10^3), cells were seeded into 96-well plates, and 24 hours after cell seeding inhibitor treatments were performed at different concentrations. Cell viability was measured 72 hours after treatment with Sulforhodamine B (SRB, Sigma Aldrich) assay as recommended by the manufacturer.

[2] = system: HCT-116 human colon carcinoma cell line; assay: Cell viability assay (SRB) in HCT-116; format: cell-based; details: 72 hours after treatment, read-out: HCT116 IC50
Procedure: as §1, §2

| Compound | IC50 [1] [nM] | IC50 [2] [nM] |
| --- | --- | --- |
| COc1ccc(-c2cc(Nc3ccnc(N4CCOCC4)n3)[nH]n2)cc1 [Compound 5, N-(3-(4-methoxyphenyl)-1H-pyrazol-5-yl)-2-morpholinopyrimidin-4-amine] | 5 | 47 |
| COc1ccc(-c2cc(Nc3ccnc(N4CCOCC4)n3)[nH]n2)c(Cl)c1 [Compound 27, N-(3-(2-chloro-4-methoxyphenyl)-1H-pyrazol-5-yl)-2-morpholinopyrimidin-4-amine] | 367 | 321 |
| COc1ccc(-c2cc(Nc3ccnc(N4CCOCC4)n3)[nH]n2)c(F)c1 [Compound 56, N-(3-(2-fluoro-4-methoxyphenyl)-1H-pyrazol-5-yl)-2-morpholinopyrimidin-4-amine] | 23 | 36 |
| COc1ccc(-c2cc(Nc3ccnc(N4C[C@@H](C)O[C@@H](C)C4)n3)[nH]n2)cc1 [Compound 59b, 2-((2R,6S)-2,6-dimethylmorpholino)-N-(3-(4-methoxyphenyl)-1H-pyrazol-5-yl)pyrimidin-4-amine] | 17 | 3 |
| COc1ccc(-c2cc(Nc3ccnc(N4CCC(C)CC4)n3)[nH]n2)cc1 [Compound 69, N-(3-(4-methoxyphenyl)-1H-pyrazol-5-yl)-2-(4-methylpiperidin-1-yl)pyrimidin-4-amine] | 25 | 5 |
| COc1ccc(-c2cc(Nc3ccnc(N4CCC(C(F)(F)F)CC4)n3)[nH]n2)cc1 [Compound 70, N-(3-(4-methoxyphenyl)-1H-pyrazol-5-yl)-2-(4-(trifluoromethyl)piperidin-1-yl)pyrimidin-4-amine] | 26 | 28 |
| COc1ccc(-c2cc(Nc3ccnc(N4C[C@@H](C)O[C@@H](C)C4)n3)[nH]n2)cc1F [Compound 86b, 2-((2R,6S)-2,6-dimethylmorpholino)-N-(3-(3-fluoro-4-methoxyphenyl)-1H-pyrazol-5-yl)pyrimidin-4-amine] | 7 | 5 |
| COc1ccc(-c2cc(Nc3ccnc(N4CCC(C)CC4)n3)[nH]n2)cc1F [Compound 87, N-(3-(3-fluoro-4-methoxyphenyl)-1H-pyrazol-5-yl)-2-(4-methylpiperidin-1-yl)pyrimidin-4-amine] | 25 | 25 |
| COc1ccc(-c2cc(Nc3ccnc(N4CCC(C(F)(F)F)CC4)n3)[nH]n2)cc1F [Compound 89, N-(3-(3-fluoro-4-methoxyphenyl)-1H-pyrazol-5-yl)-2-(4-(trifluoromethyl)piperidin-1-yl)pyrimidin-4-amine] | 31 | 9 |
| COc1ccc(-c2cc(Nc3ccnc(N4CC(C)(C)OC(C)(C)C4)n3)[nH]n2)cc1F [Compound 90, N-(3-(3-fluoro-4-methoxyphenyl)-1H-pyrazol-5-yl)-2-(2,2,6,6-tetramethylmorpholino)pyrimidin-4-amine] | 365 | 733 |
| COc1ccc(-c2cc(Nc3ccnc(N4CCOC(C)(C)C4)n3)[nH]n2)cc1F [Compound 92, 2-(2,2-dimethylmorpholino)-N-(3-(3-fluoro-4-methoxyphenyl)-1H-pyrazol-5-yl)pyrimidin-4-amine] | 245 | 488 |
| COc1ccc(-c2cc(Nc3ccnc(N4CCOC(C)C4)n3)[nH]n2)cc1F (stereo not drawn) [Compound 94, N-(3-(3-fluoro-4-methoxyphenyl)-1H-pyrazol-5-yl)-2-(2-methylmorpholino)pyrimidin-4-amine] | 29 | 46 |
| COc1ccc(-c2cc(Nc3ccnc(N4CCOC(C(F)(F)F)C4)n3)[nH]n2)cc1F (stereo not drawn) [Compound 96, N-(3-(3-fluoro-4-methoxyphenyl)-1H-pyrazol-5-yl)-2-(2-(trifluoromethyl)morpholino)pyrimidin-4-amine] | 47 | 89 |
| COc1ccc(-c2cc(Nc3ccnc(N4C[C@@H](C)O[C@H](C)C4)n3)[nH]n2)cc1F [Compound 106, 2-((2R,6R)-2,6-dimethylmorpholino)-N-(3-(3-fluoro-4-methoxyphenyl)-1H-pyrazol-5-yl)pyrimidin-4-amine] | 62 | 91 |
| COc1ccc(-c2cc(Nc3ccnc(N4CCC(C)CC4)n3)[nH]n2)c(F)c1 [Compound 130, N-(3-(2-fluoro-4-methoxyphenyl)-1H-pyrazol-5-yl)-2-(4-methylpiperidin-1-yl)pyrimidin-4-amine] | 18 | 7 |
| COc1ccc(-c2cc(Nc3ccnc(N4CCC(F)CC4)n3)[nH]n2)c(F)c1 [Compound 131, N-(3-(2-fluoro-4-methoxyphenyl)-1H-pyrazol-5-yl)-2-(4-fluoropiperidin-1-yl)pyrimidin-4-amine] | 53 | 47 |
| COc1ccc(-c2csc(Nc3ccnc(N4CCOCC4)n3)n2)cc1 [Compound 174, 4-(4-methoxyphenyl)-N-(2-morpholinopyrimidin-4-yl)thiazol-2-amine] | ≥ 10000 |  |
| COc1ccc(-c2coc(Nc3ccnc(N4CCOCC4)n3)n2)cc1 [Compound 177, 4-(4-methoxyphenyl)-N-(2-morpholinopyrimidin-4-yl)oxazol-2-amine] | ≥ 10000 |  |
| C[C@@H]1CN(c2nccc(Nc3cc(-c4ccc(Cl)cc4)n[nH]3)n2)C[C@H](C)O1 [Compound 197, N-(3-(4-chlorophenyl)-1H-pyrazol-5-yl)-2-((2R,6S)-2,6-dimethylmorpholino)pyrimidin-4-amine] |  | 255 |
| Cc1ccc(-c2cc(Nc3ccnc(N4C[C@@H](C)O[C@@H](C)C4)n3)[nH]n2)cc1 [Compound 198, 2-((2R,6S)-2,6-dimethylmorpholino)-N-(3-(p-tolyl)-1H-pyrazol-5-yl)pyrimidin-4-amine] |  | 80 |
| CCc1ccc(-c2cc(Nc3ccnc(N4C[C@@H](C)O[C@@H](C)C4)n3)[nH]n2)cc1 [Compound 199, 2-((2R,6S)-2,6-dimethylmorpholino)-N-(3-(4-ethylphenyl)-1H-pyrazol-5-yl)pyrimidin-4-amine] |  | 90 |
| C[C@@H]1CN(c2nccc(Nc3cc(-c4ccc(S(C)(=O)=O)cc4)n[nH]3)n2)C[C@H](C)O1 [Compound 206, 2-((2R,6S)-2,6-dimethylmorpholino)-N-(3-(4-(methylsulfonyl)phenyl)-1H-pyrazol-5-yl)pyrimidin-4-amine] |  | 4640 |
| C[C@@H]1CN(c2nccc(Nc3cc(-c4ccc(N5CCCC5)cc4)n[nH]3)n2)C[C@H](C)O1 [Compound 209, 2-((2R,6S)-2,6-dimethylmorpholino)-N-(3-(4-(pyrrolidin-1-yl)phenyl)-1H-pyrazol-5-yl)pyrimidin-4-amine] |  | 108 |
| COc1ccc(-c2cc(Nc3nc(N4C[C@@H](C)O[C@@H](C)C4)ncc3C)[nH]n2)c(F)c1 [Compound 283, 2-((2R,6S)-2,6-dimethylmorpholino)-N-(3-(2-fluoro-4-methoxyphenyl)-1H-pyrazol-5-yl)-5-methylpyrimidin-4-amine] | 212 |  |
| COc1ccc(-c2cc(Nc3cccc(N4CCOCC4)n3)[nH]n2)c(F)c1 [Compound 298, N-(3-(2-fluoro-4-methoxyphenyl)-1H-pyrazol-5-yl)-6-morpholinopyridin-2-amine] | 34 |  |
| C[C@@H]1CN(c2cc(Nc3cc(-c4ccc(OC(F)F)cc4)n[nH]3)ccn2)C[C@H](C)O1 [Compound 308, N-(3-(4-(difluoromethoxy)phenyl)-1H-pyrazol-5-yl)-2-((2R,6S)-2,6-dimethylmorpholino)pyridin-4-amine] | 53 |  |
